“Also recorded” adds a separate entry of the source.
Legend:
[1] = tested on: advanced pancreatic cancer with metastases in the liver; assay: In vivo studies Example 7: patient, oral chlorin e4 sodium plus laser and LED light; design: species or system human
Procedure: A patient with advanced pancreatic cancer with metastases in the liver, was treated successfully. Prior to treatment the patient was in poor health generally and suffering from extreme weight loss, pain and other typical symptoms of advanced pancreatic cancer. The treatment consisted of three courses. For each course, five doses of 62.5-187.5 mg chlorin e4 sodium were administered orally over the course of eight days. About 24 hours after each oral dose of chlorin e4 sodium, the patient was treated with laser and LED light having a wavelength of 660 nm and 760 nm.

[2] = tested on: invasive ductile breast cancer and lymph node metastases; assay: In vivo studies Example 1: patient, oral chlorin e4 sodium plus laser and LED light; design: species or system human
Procedure: A patient with invasive ductile breast cancer and lymph node metastases in the right arm pit, was treated successfully. Prior to treatment a large cancer mass in the right breast was observed and a small cancer mass in the right arm pit. The treatment consisted of three courses. For each course, five doses of 62.5-187.5 mg chlorin e4 sodium were administered orally over the course of eight days. 24-48 hours after each oral dose of chlorin e4 sodium, the patient was treated with laser and LED light having a wavelength of 660 nm and 760 nm.
Subsequently the patient was treated with two further courses. Again, for each course, five doses of 62.5-187.5 mg chlorin e4 sodium were administered orally over the course of eight days. 24-48 hours after each oral dose of chlorin e4 sodium, the patient was treated with laser and LED light having a wavelength of 660 nm and 760 nm. Additionally an interstitial light treatment using a fine needle was performed on the breast with an optical fibre laser having a wavelength of 660 nm and 760 nm.

S180 sarcoma = assay: Photodynamic therapy study with mice with subcutaneous S180 sarcoma; type: in vivo, Kunming mice
Procedure: In this experiment the effects of photodynamic therapy mediated by three different photosensitizers, namely Duteroporphyrin, chlorin e4 sodium and 5-ALA, on mouse S180 sarcoma were observed. Duteroporphyrin and 5-ALA are porphyrin derivatives.
40 Kunming mice with well grown subcutaneous S180 sarcoma were randomly divided into four groups: (A) Duteroporphyrin group (10 mg/kg), (B) chlorin e4 sodium group (20 mg/kg), (C) 5-ALA group (100 mg/kg) and (D) blank control group. The mice in groups A and B were subjected to irradiation 8-10 hours after tail vein injection of the photo sensitizers, while the mice in group C were subjected to irradiation 3 hours after tail vein injection of the photosensitizer. A laser with a wavelength of 630 nm was used for groups A and C, while a duel-frequency laser with wavelengths of 660 nm and 760 nm was used for group B. The local tumour sites were irradiated vertically, with the diameter of the laser spots being 1.2-1.5 cm. The whole tumour and 3-5 mm of normal tissue around the tumour were covered by the laser. The lasers were applied to groups A, B and C for 20 minutes, with a power density of 150 mW/cm^2 and an energy density of 180 J/cm^2. The mice in control group D were not subjected to irradiation.

[3] = 21 days after the treatments, P<0.05

SMILES: C=Cc1c(C)c2cc3nc(c(C)c4[nH]c(cc5nc(cc1[nH]2)C(C)=C5CC)c(C)c4C(=O)O)[C@@H](CCC(=O)O)[C@@H]3C [chlorin e4 sodium]
- Response in the pancreatic area (PET/CT) ([1]; before and after three courses): improvements and a good treatment response
- Pain ([1]; three courses): suffered less pain
- Photosensitive reaction ([1]; three courses): no photosensitive reaction
- Response in the breast and lymph nodes (PET/CT) ([2]; after the fifth and final treatment course): complete response
- Reduction in size of large cancer mass in the breast (doppler ultrasound) ([2]; after the fourth treatment course): about 25%
- Size of large cancer mass in the breast (doppler ultrasound) ([2]; after three courses): had not reduced in size
- Vascularity of large cancer mass in the breast (doppler ultrasound) ([2]; after three courses): almost no vascularity
- Vascularity of smaller lymph node cancer mass (doppler ultrasound) ([2]; after three courses): almost no vascularity
- Size of smaller lymph node cancer mass ([2]; after three courses, reduced from 1.9 cm): 1 cm
- Reactions at the breast tumour site ([2]; inflammatory response after each course, burning sensation towards the end of the second course): inflammatory response; also recorded: burning sensation
- Patient status ([2]; two years and three months after starting, five months after completion of treatment): alive and well
- Pathological changes of tumour tissues (HE staining) (S180 sarcoma; 24 hours after the treatment): a wide range of tumour necrosis, tumour vascular disruption and neutrophil infiltration
- Living tumour cells versus control group D (FCM) (S180 sarcoma; 24 hours after treatments): obviously fewer
- Proportions of apoptotic and necrotic tumour cells versus control group D (FCM) (S180 sarcoma; 24 hours after treatments): a lot higher
- Mean tumour volume versus control group D (S180 sarcoma; [3]): statistically significantly smaller
- Mean tumour volume, group B versus group C (5-ALA) (S180 sarcoma; [3]): statistically significantly smaller in group B than group C
- Tumour appearance after treatment (eschars) (S180 sarcoma; after treatments): Black eschars
- Recovery of skins and fur (S180 sarcoma; mouse, in vivo): fully recovered
- Sizes of tumours versus control group D (S180 sarcoma; six days after the treatments): no obvious difference
- Therapeutic effect compared with 5-ALA (S180 sarcoma; summary of study, P<0.05): statistically significantly better therapeutic effect
- Tumour inhibition rate (S180 sarcoma; tail vein: Duteroporphyrin 10 mg/kg, chlorin e4 sodium 20 mg/kg, 5-ALA 100 mg/kg, laser 20 minutes, 180 J/cm^2): 75.4%

Source: patent US20150315202A1, “CHLORIN DERIVATIVE USEFUL IN PHOTODYNAMIC THERAPY AND DIAGNOSIS” (RMW CHO GROUP LIMITED, priority 2012, published 2015)
